Reference: patent US20220274947A1, “NOVEL HETEROARYL-TRIAZOLE COMPOUNDS AS PESTICIDES” (Bayer Aktiengesellschaft, priority 2019, published 2022)

Assays:
Format in all cases: in vivo
Rhipicephalus microplus [1] = assay: Rhipicephalus (Boophilus) microplus injection test (BOOPMI Inj); conditions: 168 h, injection into adult engorged female ticks, egg deposition after 7 days, read-out: activity (efficacy: 100% means all eggs are infertile); for pest or weed control at 0.004 mg: application rate 4 μg/tick; for pest or weed control at 0.02 mg: application rate 20 μg/tick
Procedure, shortened: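 Five engorged adult female R. microplus ticks injected into the abdomen with 1 μL of compound diluted in DMSO, then kept in a climate chamber. Fertile egg deposition checked after 7 days; eggs without visible fertility held until hatching at about 42 days. Efficacy: 100% = all eggs infertile, 0% = all fertile.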

Rhipicephalus microplus [2] = assay: Rhipicephalus (Boophilus) microplus in-vitro contact test, larval cattle tick, strain Parkhurst (BOOPMI Cont); conditions: application rate 5 μg/cm^2 (=500 g/ha), tick larvae, after 48 hours, read-out: activity (efficacy: 100% means all larvae are dead or moribund)
Procedure, shortened: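 Acetone solutions dried onto glass tube walls (900 ppm giving 5 μg/cm^2); 20-50 pyrethroid-resistant Parkhurst larvae added per tube and held 48 h at 27° C., 85% relative humidity. Efficacy scored by negative geotaxis as % dead or moribund larvae.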

Ctenocephalides felis [3] = assay: Ctenocephalides felis oral test (CTECFE Oral); conditions: 48 h, read-out: activity (mortality)
Procedure, shortened: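 About 20 unfed adult cat fleas fed through parafilm on cattle blood containing compound (DMSO concentrate diluted in blood to the desired concentration). Blood held at 37 °C, fleas at room temperature. Mortality (%) scored after 2 days.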

Rhipicephalus sanguineus = Rhipicephalus sanguineus in-vitro contact test, adult brown dog ticks (RHIPSA Cont); conditions: 48 h, after 48 hours, read-out: activity (efficacy: 100% means all ticks are dead or moribund); for pest or weed control at 1 µg/cm2, 100 g/ha: application rate 1 μg/cm^2 (=100 g/ha); for pest or weed control at 5 µg/cm2, 500 g/ha: application rate 5 μg/cm^2 (=500 g/ha)
Procedure, shortened: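 Compound in acetone was coated onto the inner walls of glass tubes and dried by rotation before adult brown dog ticks were exposed. Efficacy was scored at 48 h. Ticks unable to climb away from a 45–50 °C heating plate within 5 min counted as dead or moribund.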

Diabrotica balteata = Diabrotica balteata spray test; conditions: 168 h, wheat seeds, larvae, after 7 days, read-out: activity (efficacy: 100% means all seedlings have grown up like in the untreated, uninfected control); for pest or weed control at 32 µg/disc, 100 g/ha: application rate 100 g/ha (=32 μg/well); for pest or weed control at 160 µg/disc, 500 g/ha: application rate 500 g/ha (=160 μg/well)
Procedure, shortened: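 Wheat seedlings, germinated 1 day on agar, were sprayed with compound in acetone/DMF diluted in water containing emulsifier, then infested with 10-20 Diabrotica balteata larvae. After 7 days efficacy in % was scored: 100% means seedlings grew like the untreated, uninfected control; 0% means none grew.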

Myzus persicae = Myzus persicae oral test; conditions: 120 h, read-out: activity (mortality)
Procedure, shortened: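 Percent mortality was recorded at day 5, where 0% means no aphids killed. Compound prepared from an acetone concentrate diluted in water and combined with IPL41 medium containing sugar was offered to mixed-stage green peach aphids, which sucked it through a parafilm seal.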

Nezara viridula = Nezara viridula spray test; conditions: in Hordeum vulgare, 96 h, barley plants, larvae, after 4 days; for mortality at 100 g/ha: application rate 100 g/ha; for mortality at 500 g/ha: application rate 500 g/ha
Description: Nezara viridula—Spray Test Solvent: 78.0 parts by weight of acetone • • 1.5 parts by weight of dimethylformamide Emulsifier: alkylarylpolyglycol ether
To produce a suitable preparation of active compound, 1 part by weight of active compound is mixed with the stated amount of solvent, and the concentrate is diluted with water, containing an emulsifier concentration of 1000 ppm, to the desired concentration. Further test concentrations are prepared by dilution with emulsifier containing water.
Barley plants (Hordeum vulgare) infested with larvae of the southern green stink bug (Nezara viridula) are sprayed with a test solution containing the desired concentration of the active ingredient.
After 4 days mortality in % is determined. 100% means all the stink bugs have been killed; 0% means none of the stink bugs have been killed.

Spodoptera frugiperda = Spodoptera frugiperda spray test; conditions: in Zea mays, 168 h, read-out: activity (mortality)
Procedure, shortened: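 Maize leaf sections were sprayed with compound formulated in acetone/DMF and diluted in water containing 1000 ppm emulsifier. Dried leaves were infested with fall armyworm larvae, and percent mortality was scored after 7 days.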

[4] = system: Musca domestica strain WHO—N; assay: Musca domestica test (MUSCDO surface treatment & contact assay); conditions: exposure 30 minutes, 24 hours after contact, read-out: efficacy (mortality); for mortality at 20 mg/m2: surface concentration 20 mg/m^2, glazed tile; for mortality at 4 mg/m2: surface concentration 4 mg/m^2, glazed tile
Procedure, shortened: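 Compound dissolved in acetone (2 mg/ml) with 2000 ppm rapeseed oil methyl ester and pipetted onto glazed tile; after acetone evaporation, adult flies exposed to dried surface for 30 minutes. Mortality (%) scored 24 hours after contact.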

Ctenocephalides felis [5] = assay: Ctenocephalides felis in-vitro contact test, adult cat flea (CTECFE Cont); conditions: application rate 5 μg/cm^2 (=500 g/ha), adult cat fleas, after 48 hours, read-out: activity (efficacy: 100% means all fleas are dead or moribund)
Description: Ctenocephalides felis—In-Vitro Contact Tests Adult Cat Flea (CTECFE Cont)
9 mg compound is solved in 1 mL acetone and diluted with acetone to the desired concentration. 250 μL of the test solution is filled in 25 mL glass test tubes and homogeneously distributed on the inner walls by rotation and tilting on a shaking device (2 h at 30 rpm). With a compound concentration of 900 ppm, an inner surface of 44.7 cm^2 and a homogeneous distribution, a dose of 5 μg/cm^2 is achieved.
After the solvent has evaporated, each test tube is filled with 5-10 adult cat fleas (Ctenocephalides felis), closed with a perforated lid and incubated in a lying position at room temperature and relative humidity. After 48 hours efficacy is determined. The fleas are patted on the ground of the tubes and are incubated on a heating plate at 45-50° C. for at most 5 minutes. Immotile or uncoordinated moving fleas, which are not able to escape the heat by climbing upwards, are marked as dead or moribund.
An efficacy of 100% means all fleas are dead or moribund; 0% means no fleas are dead or moribund.

[6] = system: Aedes aegypti strain MONHEIM; assay: Aedes aegypti test (AEDSAE surface treatment & contact assay); conditions: exposure 30 minutes, 24 hours after contact, read-out: efficacy (mortality); for mortality at 4 mg/m2: surface concentration 4 mg/m^2, glazed tile; for mortality at 20 mg/m2: surface concentration 20 mg/m^2, glazed tile
Procedure, shortened: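 Compound dissolved in acetone (2 mg/ml) with 2000 ppm rapeseed oil methyl ester, pipetted onto glazed tile and dried. Adult mosquitoes exposed on the surface for 30 min; percent mortality scored 24 h after contact.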

Row | Structure (SMILES) | pest or weed control at 0.004 mg (Rhipicephalus microplus [1]) [%] | pest or weed control at 0.02 mg (Rhipicephalus microplus [1]) [%] | pest or weed control at 5 µg/cm2 (Rhipicephalus microplus [2]) [%] | mortality at 100 ppm (Ctenocephalides felis [3]) [%] | pest or weed control at 1 µg/cm2, 100 g/ha (Rhipicephalus sanguineus) [%] | pest or weed control at 5 µg/cm2, 500 g/ha (Rhipicephalus sanguineus) [%] | pest or weed control at 32 µg/disc, 100 g/ha (Diabrotica balteata) [%] | mortality at 4 ppm (Myzus persicae) [%] | mortality at 100 g/ha (Nezara viridula) [%] | mortality at 100 g/ha (Spodoptera frugiperda) [%] | mortality at 20 mg/m2 [4] [%] | pest or weed control at 5 µg/cm2 (Ctenocephalides felis [5]) [%] | pest or weed control at 160 µg/disc, 500 g/ha (Diabrotica balteata) [%] | mortality at 500 g/ha (Nezara viridula) [%] | mortality at 500 g/ha (Spodoptera frugiperda) [%] | mortality at 4 mg/m2 [6] [%] | mortality at 4 mg/m2 [4] [%] | mortality at 20 mg/m2 [6] [%]
1 | CC(C)c1nc([C@H](C)NC(=O)c2cc(Cl)nc(C(F)(F)F)c2)n(-c2ccc(C#N)cn2)n1 [I-28] | 100 | 100 | 100 | 100 | 100 | 100 | 100 | 90 | 90 | 100 | 80 to 100 |  |  |  |  |  |  | 
2 | C[C@H](NC(=O)c1cc(Cl)cc(C(F)(F)F)c1)c1ncnn1-c1ccc(C(=O)N(C)CC#N)cn1 [II-72] | 100 | 100 | 100 |  | 100 | 100 | 100 | 100 |  | 100 |  | 100 | 100 | 100 | 100 |  |  | 
3 | COc1nc([C@H](C)NC(=O)c2cc(C(F)(F)F)cc(C(F)(F)F)c2)n(-c2ccc(C#N)cn2)n1 [I-11] | 100 | 100 | 100 | 100 |  |  | 100 | 100 |  | 100 | 80 to 100 |  | 100 | 100 | 100 |  |  | 
4 | C[C@H](NC(=O)c1cc(OC(F)F)cc(OC(F)F)c1)c1nc(C2CC2)nn1-c1ccc(C#N)cn1 [I-47] | 100 |  | 100 | 90 | 100 | 80 | 80 |  | 100 | 100 | 80 to 100 |  |  |  |  | 80 to 100 | 80 to 100 | 
5 | C[C@H](NC(=O)c1cc(Cl)cc(C(F)F)c1)c1nc(C2CC2)nn1-c1ccc(C#N)cn1 [I-42] | 100 |  | 100 | 100 |  |  | 100 |  | 100 | 100 | 80 to 100 |  |  |  |  | 80 to 100 |  | 80 to 100
6 | C[C@H](NC(=O)c1cc(I)cc(C(F)(F)F)c1)c1ncnn1-c1ccc(C#N)cn1 [II-46] | 100 | 100 | 100 | 100 | 100 | 100 | 100 |  |  | 100 | 80 to 100 |  | 100 | 100 | 100 | 80 to 100 | 80 to 100 | 80 to 100
7 | C[C@H](NC(=O)c1cc(Cl)cc(C(F)(F)F)c1)c1ncnn1-c1ccc(C(=O)N(CC(F)(F)F)C2CC2)cn1 [II-70] | 100 | 100 | 100 |  | 100 | 100 | 100 |  |  | 100 |  | 100 | 100 | 90 | 100 |  |  | 
